“Also recorded” adds a separate entry of the source.
Experiments:
HSV-1 [1] = experiment: Cell protection test, HSV-1 in HEp2 cells; type: cell-based, herpes simplex virus type 1 (KOS, patent strain); details: duplicate wells, 72 hours
Protocol: (§1) Two different HSV-1 and HSV-2 strains were used: HSV-1 (KOS), HSV-2 (MS). Also, HSV-1 (patent strain) and HSV-2 (patent strain) were purchased from ATCC and propagated in HEp2 cell monolayers. Virus stocks were prepared by adsorbing 1 ml of virus suspension containing 1 ×10^5 virus particles for one hour in HEp2 cells at 37° C. in 5% carbon dioxide tension. This stock was incubated under similar conditions for 48 hours after adding 15 ml of MEM containing the usual supplements.
(§2) Infected cells were harvested and disrupted through three cycles of freezing and thawing. The contents in the flasks were pooled, and the supernatant virus particles were collected by centrifugation at 3000 rpm for 5 minutes. The virus suspension dispensed in 2.5 ml aliquot each and […] using both microtitration and plaque counting methods. HSV-1 and HSV-2 containing 5×10^4 PFU/ml and 5.25×10^4 PFU/ml respectively were stored at -80° C. until needed.
(§3) A plus 3 (+++) was given to the wells in which betulin solutions protected the cells without any cytopathic effect as compared to cell and betulin control.

HSV-2 [2] = experiment: Cell protection test, HSV-2 in HEp2 cells; type: cell-based, herpes simplex virus type 2 (MS, patent strain); details: duplicate wells, 72 hours
Protocol: as §1, §2, §3

HSV-1 [3] = experiment: Cell protection test, HSV-1 in Vero cells; type: cell-based, herpes simplex virus type 1 (KOS, patent strain); details: duplicate wells, 72 hours
Protocol: as §1, §2, §3

HSV-1 [4] = experiment: Cell protection test, HSV-1 in SK-N-MC cells; type: cell-based, herpes simplex virus type 1 (KOS, patent strain); details: duplicate wells, 72 hours
Protocol: as §1, §2, §3

HSV-2 [5] = experiment: Cell protection test, HSV-2 in SK-N-MC cells; type: cell-based, herpes simplex virus type 2 (MS, patent strain); details: duplicate wells, 72 hours
Protocol: as §1, §2, §3

HEp2 cells = experiment: Cytotoxicity test and drug controls, HEp2 cells; type: cell-based, human; parameters: Betulin control (monolayer rating) / Acyclovir control (monolayer rating): key to the marks not given beside the values
Vero cells = experiment: Cytotoxicity test and drug controls, Vero cells; parameters: Betulin control (monolayer rating) / Acyclovir control (monolayer rating): key to the marks not given beside the values
Protocol: Human epithelial type 2 (HEp2), African green monkey kidney (Vero) and human neuroblastoma (SK-N-MC) cells were purchased from American Type Culture Collection (ATCC-Rockville, Md.). These cells were grown at 37° C. in the presence of 5% carbon dioxide tension in minimal essential medium (MEM-Eagle) containing 0.1 mM of nonessential amino acids, and Earl's BSS 90% supplemented with 5% Newborn Calf Serum (NCS) and 1% penicillin/streptomycine sulfate. For SK-N-MC cells, 1.0 mM sodium pyruvate, and 10% NCS was used. The stock cells were prepared and stored at -80° C. in 5% dimethyl sulfoxide (DMSO).
A betulin solution containing 0.5 mg of betulin/1000 ml of water was filtered using a […] pore size filter (Gelman) attached to a 35 ml volume syringe to remove bacteria and other larger organisms. This sterile sample was further diluted to 1:2, 1:4, and 1:8 using distilled, deionized sterile water.
The cytotoxic effect of betulin was observed by using a 24-well microtiter plate. Each well contained 1 ml of MEM with supplements containing 1200 HEp2, Vero or SK-N-MC cells. The plates were incubated for 48 hours at 37° C. in 5% carbon dioxide tension and followed by replacement of the medium with 1.0 ml of MEM with specific supplements.
A 1.0 ml of sterile betulin solution in duplicate at varying two-fold dilution were placed into labeled wells. No betulin solution was placed in the control wells containing a monolayer of cells. These microtiter plates were incubated at 37° C. and 5% carbon dioxide tension for 48 hours and rated as follows.
Similarly, a plus 2 (++) for 75% monolayer, a plus one (+) for 50% monolayer, and a plus minus (±) for 25% monolayer development. A minus rating means that most of the cells are abnormal, whereas a double minus (--) rating was given to wells containing all abnormal cells due to cytotoxic effect of betulin solution. Noncytotoxic dilutions and the highest dilution of betulin showing cytotoxicity, if any, were used in the protection tests. […]

SK-N-MC cells = experiment: Cytotoxicity test and drug controls, SK-N-MC cells; type: cell-based, human; parameters: Betulin control (monolayer rating) / Acyclovir control (monolayer rating): key to the marks not given beside the values
HSV-1 and HSV-2 = experiment: Cell protection tests, overall, HSV-1 and HSV-2 in three cell lines; type: cell-based
Protocol: as §1, §2, §3

HSV-2 [6] = experiment: Cell protection test, HSV-2 in Vero cells; type: cell-based, herpes simplex virus type 2 (MS, patent strain); details: acyclovir 25 mg; duplicate wells; 72 hours
Protocol: as §1, §2, §3

[7] = betulin 0.5 mg/l and two-fold dilutions, 48 hours
[8] = acyclovir 50 mg/l and two-fold serial dilution

C=C(C)[C@@H]1CC[C@]2(CO)CC[C@]3(C)[C@H](CC[C@@H]4[C@@]5(C)CC[C@H](O)C(C)(C)[C@@H]5CC[C@]43C)[C@@H]12 [Betulin, lup-20(29)-ene-3β, 28-diol]
Effectiveness of betulin against HSV-1 in HEp2 cells (HSV-1 [1]; betulin 0.5 mg [mg/l]): ++± | Effectiveness of betulin against HSV-2 in HEp2 cells (HSV-2 [2]; betulin 0.25 mg): ++± | Effectiveness of betulin against HSV-1 in vero cells (HSV-1 [3]; betulin 0.5 mg): ++± | Effectiveness of betulin against HSV-1 in SK-N-MC cells (HSV-1 [4]; betulin 0.5 mg): ++± | Effectiveness of betulin against HSV-2 in SK-N-MC cells (HSV-2 [5]; betulin 0.5 mg): ++± | Cytotoxic effect (HEp2 cells; [7]): not toxic; also recorded: did not show any cytotoxic effect | Betulin control (monolayer rating) (HEp2 cells; control wells, highest concentration of betulin, Tables 1 and 2): +++ | Cytotoxic effect (Vero cells; [7]): not toxic; also recorded: did not show any cytotoxic effect | Betulin control (monolayer rating) (Vero cells; control wells, highest concentration of betulin, Tables 3 and 4): +++ | Cytotoxic effect (SK-N-MC cells; [7]): not toxic; also recorded: did not show any cytotoxic effect | Betulin control (monolayer rating) (SK-N-MC cells; control wells, highest concentration of betulin, Tables 5 and 6): +++ | Effectiveness in protecting indicator cell monolayers compared to acyclovir (HSV-1 and HSV-2; 0.5 mg/l betulin vs 25 mg/l ACV, three cell types): as effective as 25 mg/l of ACV | Spread of virus from the infected cells (HSV-1 and HSV-2; after 72 hours): did not spread from the infected cells | Effectiveness against HSV-2 compared to HSV-1 (HSV-1 and HSV-2; three different cell lines): slightly more effective in protecting all three different cell lines against HSV-2 strains than HSV-1 strains; also recorded: more effective against HSV-2 compared to HSV-1

Nc1nc2c(ncn2COCCO)c(=O)[nH]1 [Acyclovir, reference compound]
Effectiveness against HSV-1 in HEp2 cells (acyclovir) (HSV-1 [1]; acyclovir 25 mg [mg/l]): ++± | Effectiveness against HSV-2 in HEp2 cells (acyclovir) (HSV-2 [2]; acyclovir 25 mg): ++± | Effectiveness against HSV-1 in vero cells (acyclovir) (HSV-1 [3]; acyclovir 25 mg): ++± | Effectiveness against HSV-2 in vero cells (acyclovir) (HSV-2 [6]): ++± | Effectiveness against HSV-1 in SK-N-MC cells (acyclovir) (HSV-1 [4]; acyclovir 25 mg): ++± | Effectiveness against HSV-2 in SK-N-MC cells (acyclovir) (HSV-2 [5]; acyclovir 25 mg): ++± | Acyclovir control (monolayer rating) (HEp2 cells): +++ | Cytotoxic effect (HEp2 cells; [8]): no cytotoxic effect was observed | Acyclovir control (monolayer rating) (Vero cells): +++ | Acyclovir control (monolayer rating) (SK-N-MC cells): +++ | Cytotoxic effect (SK-N-MC cells; [8]): no cytotoxic effect was observed
